Results on 12 compounds are retold here after patent US20110288086A1, “POLYCYCLIC QUINAZOLINES, PREPARATION THEREOF, AND USE THEREOF” (priority 2010, published 2011).

The subject of experiment [1] is Jurkat E6-1 human T-cell lymphoma. The experiment is described as follows: Tumor cell inhibition ratio, CCK-8 kit, Jurkat E6-1. As to conditions: Jurkat E6.1, read-out: Antiproliferative effect (inhibition ratio) E6-1. Background: Formazan colour is commonly taken as a measure of viable cells.
Description: (§1) The inhibitory activities of the compounds on tumor cells in vitro
Experiment [2] relates to Hut78 T-Lymphocytic Leukemia cells. The experiment is described as follows: Tumor cell inhibition ratio, CCK-8 kit, Hut78. As to conditions: Homo sapiens, HuT78, read-out: Antiproliferative effect (inhibition ratio) Hut-78.
Description: as §1
The test system of experiment [3] is Hep3B2.1-7 human hepatoma carcinoma cells. Kind of experiment: Tumor cell inhibition ratio, CCK-8 kit, Hep3B. As to conditions: read-out: Antiproliferative effect (inhibition ratio) Hep3B.
Description: as §1
Experiment [4] has as its system A549 human lung cancer cells. Kind of experiment: Tumor cell inhibition ratio, CCK-8 kit, A549. The conditions noted are these: A549, read-out: Antiproliferative effect (inhibition ratio) A549.
Description: as §1
For experiment [5], the system named is PC-3 human carcinoma of prostate. Kind of experiment: Tumor cell inhibition ratio, CCK-8 kit, PC-3. As to conditions: read-out: Antiproliferative effect (inhibition ratio) PC-3.
Description: as §1
Experiment [6] relates to MDA-MB-435s human breast carcinoma cells. The experiment is described as follows: Tumor cell inhibition ratio, CCK-8 kit, MDA-MB-435s. As to conditions: read-out: Antiproliferative effect (inhibition ratio) 435s.
Description: as §1
The subject of experiment [7] is PANC-1 human pancreatic cancer cells. The experiment is described as follows: Tumor cell inhibition ratio, CCK-8 kit, PANC-1. The conditions noted are these: PANC-1, read-out: Antiproliferative effect (inhibition ratio) PANC-1.
Description: as §1
The subject of experiment [8] is Colo320 human rectal cancer cells. Kind of experiment: Tumor cell inhibition ratio, CCK-8 kit, Colo320. The conditions noted are these: COLO 320, read-out: Antiproliferative effect (inhibition ratio) Colo320.
Description: as §1
Experiment [9] relates to K562 human chronicity marrow leukemic cells. Kind of experiment: Tumor cell inhibition ratio, CCK-8 kit, K562. The conditions noted are these: K562, read-out: Antiproliferative effect (inhibition ratio) K562.
Description: as §1
In the next experiment the target is T1, aurora kinase B (Homo sapiens, UniProt Q96GD4).
T1 construct: purchased Invitrogen PV3174
T1 sequence (Q96GD4 whole entry): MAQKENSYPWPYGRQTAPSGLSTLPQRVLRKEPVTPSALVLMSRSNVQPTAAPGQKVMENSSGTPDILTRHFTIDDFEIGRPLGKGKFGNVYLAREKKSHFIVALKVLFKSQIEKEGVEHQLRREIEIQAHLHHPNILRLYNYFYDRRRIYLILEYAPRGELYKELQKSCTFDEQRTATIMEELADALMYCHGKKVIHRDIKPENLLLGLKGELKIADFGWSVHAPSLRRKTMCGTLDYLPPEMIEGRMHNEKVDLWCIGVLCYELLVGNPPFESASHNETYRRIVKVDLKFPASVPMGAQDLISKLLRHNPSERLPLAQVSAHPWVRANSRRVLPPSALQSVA
The experiment is described as follows: Aurora kinase B inhibition in vitro (Invitrogen aurora kinase screening kit PV3174). Type of experiment: biochemical.

A further experiment addresses EGFR tyrosine kinase (Homo sapiens, UniProt P00533). Kind of experiment: EGFR tyrosine kinase inhibition in vitro (Invitrogen EGFR inhibitor screening kit PV3193).

Sequence of EGFR tyrosine kinase (P00533 25-1210): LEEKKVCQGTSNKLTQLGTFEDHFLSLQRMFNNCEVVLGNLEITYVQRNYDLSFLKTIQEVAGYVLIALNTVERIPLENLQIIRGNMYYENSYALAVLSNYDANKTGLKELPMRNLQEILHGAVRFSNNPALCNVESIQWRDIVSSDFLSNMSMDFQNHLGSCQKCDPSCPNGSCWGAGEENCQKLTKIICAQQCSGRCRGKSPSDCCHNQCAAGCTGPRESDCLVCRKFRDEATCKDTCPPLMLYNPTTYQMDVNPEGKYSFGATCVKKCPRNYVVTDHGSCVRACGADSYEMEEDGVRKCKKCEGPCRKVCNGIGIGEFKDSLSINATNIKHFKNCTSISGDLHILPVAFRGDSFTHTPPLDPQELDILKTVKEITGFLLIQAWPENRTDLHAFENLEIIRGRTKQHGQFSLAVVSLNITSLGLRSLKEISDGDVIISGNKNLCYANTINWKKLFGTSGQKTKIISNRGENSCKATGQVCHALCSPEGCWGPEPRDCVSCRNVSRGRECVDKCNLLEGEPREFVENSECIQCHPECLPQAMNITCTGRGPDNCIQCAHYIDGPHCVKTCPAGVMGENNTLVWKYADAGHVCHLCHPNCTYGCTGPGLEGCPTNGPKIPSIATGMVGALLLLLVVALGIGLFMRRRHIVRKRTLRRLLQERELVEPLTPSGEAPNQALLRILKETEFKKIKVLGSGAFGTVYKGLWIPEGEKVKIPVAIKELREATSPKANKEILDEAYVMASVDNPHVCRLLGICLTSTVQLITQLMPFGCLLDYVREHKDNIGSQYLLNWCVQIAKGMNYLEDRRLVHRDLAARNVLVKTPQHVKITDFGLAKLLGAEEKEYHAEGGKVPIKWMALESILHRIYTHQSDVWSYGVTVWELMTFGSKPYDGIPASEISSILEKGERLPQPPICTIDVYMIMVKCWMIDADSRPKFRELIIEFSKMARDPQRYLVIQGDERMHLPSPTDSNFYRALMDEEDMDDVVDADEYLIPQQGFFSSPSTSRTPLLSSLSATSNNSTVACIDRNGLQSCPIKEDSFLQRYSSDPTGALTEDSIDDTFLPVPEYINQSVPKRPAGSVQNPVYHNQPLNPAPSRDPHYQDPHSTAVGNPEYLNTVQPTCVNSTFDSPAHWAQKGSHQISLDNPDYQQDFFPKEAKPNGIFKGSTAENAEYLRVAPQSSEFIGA
Description for EGFR tyrosine kinase: The inhibitory activities of EGFR tyrosine kinase in vitro
Erlotinib hydrochloride was used as a positive control drug.

Consider `COc1cc2c(cc1OCCCN1CCOCC1)C1=Nc3cccc(C#N)c3CN1C=N2` [Compound V-27, 3-methoxy-2-(3-morpholinylpropoxy)-8H-quinazolino[4,3-b]quinazoline-9-nitrile], for which the inhibition at 10 µM in experiment [1] worked out at 24%; in [2], 65.6%; in experiment [3] it was 2.44%; in experiment [4], 39.8%; in [5], 25.2%; in [6], 12%. In addition, the inhibition at 10 µM in experiment [7] worked out at 41.8%; in experiment [8], 34.5%; in [9], 22.4%. Moreover, the inhibition at 100 µM in [1] stood at 75.4%; in experiment [2], 95.9%; in [3] it was 67.3%; in experiment [4], 80%; in experiment [5], 84%; in experiment [6], 79.7%. Moreover, the inhibition at 100 µM in [7] was 99.8%; in [8], 84.8%; in experiment [9], 62.2%.
`COc1cc2c(cc1OCCCN1CCOCC1)C1=Nc3cc(COS(C)(=O)=O)cc([N+](=O)[O-])c3CN1C=N2` [Compound V-29]: the “The inhibition ratio of the compound on Aurora B(%)” value on aurora kinase B (40 μM) amounted to 11.2%; on aurora kinase B (200 μM), 78.9%. Further, the entries for the “The inhibition ratio of the compound on EGFR(%)” value at EGFR tyrosine kinase (40 μM) and at EGFR tyrosine kinase (200 μM) were 35.2% and 86.5%, respectively.
For the compound `COc1cc2c(cc1OCCCN1CCOCC1)C1=Nc3ccc(F)c(Cl)c3CN1C=N2` [Compound V-23, 4-(3-((9-chloro-10-fluoro-3-methoxy-8H-quinazolino[4,3-b]quinazoline-2-yl)oxy)propyl)morpholine di-p-toluenesulfonate], the inhibition at 10 µM in experiment [1] stood at 56.3%; in [2], 42%; in experiment [3], 27.1%; in experiment [4], 10.4%; in experiment [5] it was 30.7%; in [6], 20.7%. Moreover, the inhibition at 10 µM in experiment [7] was found to be 21.5%; in experiment [8] it was 52.3%; in [9] it was 58.7%. The inhibition at 100 µM in experiment [1] worked out at 77.5%; in [2], 99.8%; in experiment [3] it was 48.7%; in experiment [4], 22.5%; in [5] it was 97.6%; in experiment [6], 52.2%. The inhibition at 100 µM in [7] worked out at 98.8%; in experiment [8], 99.5%; in experiment [9] it was 73.4%.
As to `C#Cc1cccc2c1CN1C=Nc3ccc(-c4ccc(CNCCS(C)(=O)=O)o4)cc3C1=N2` [Compound V-35, N-((5-(9-ethynyl-8H-quinazolino[4,3-b]quinazoline-2-yl)furan-2-yl)methyl)-2-(methylsulfonyl)ethylamine], the “The inhibition ratio of the compound on Aurora B(%)” value came to 3.3% at aurora kinase B (40 μM) and 79.8% on aurora kinase B (200 μM). Further, the “The inhibition ratio of the compound on EGFR(%)” value at EGFR tyrosine kinase (40 μM) is reported as 13.3%; on EGFR tyrosine kinase (200 μM), 75.8%.
As for `Cc1cc(Nc2cc(N3CCN(C)CC3)nc(Sc3ccc(NC(=O)C4CC4)cc3)n2)n[nH]1` [VX-680, reference compound], the entries for the “The inhibition ratio of the compound on Aurora B(%)” value on aurora kinase B (40 μM) and at aurora kinase B (200 μM) were 35.2% and 81.6%, respectively.
On to `COCCOc1cc2c(cc1OCCOC)C1=Nc3cccc(NC(=O)c4ccccc4)c3CN1C=N2` [Compound V-12, N-{2,3-bis(2-methoxyethoxy)-8H-quinazolino[4,3-b]quinazoline}benzamide], for which the results for the “The inhibition ratio of the compound on Aurora B(%)” value at aurora kinase B (40 μM) and on aurora kinase B (200 μM) were 40.1% and 87.9%, respectively. The “The inhibition ratio of the compound on EGFR(%)” value at EGFR tyrosine kinase (40 μM) was determined as 25.8%; on EGFR tyrosine kinase (200 μM) it was 62.7%.
On to `C#Cc1cccc2c1CN1C=Nc3cc(OC)c(OCCCN4CCOCC4)cc3C1=N2` [Compound V-26, 4-(3-((9-ethynyl-3-methoxy-8H-quinazolino[4,3-b]quinazoline-2-yl)oxy)propyl)morpholine], for which the inhibition at 10 µM is 44.6% in experiment [1]; 32.1% in experiment [2]; 28.4% in [3]; 27.7% in experiment [4]; 5.86% in [5]; 38% in [6]. For the same compound, the inhibition at 10 µM in [7] stood at 40.7%; in experiment [8], 32.1%; in [9] it was 4.29%. Further, the inhibition at 100 µM in [1] was determined as 85.4%; in experiment [2], 72.4%; in experiment [3], 89.5%; in experiment [4] it was 93.6%; in experiment [5], 30.3%; in [6], 71.4%. Further, the inhibition at 100 µM in [7] came out at 76.6%; in experiment [8], 81.4%; in [9], 11.7%.
With `CS(=O)(=O)CCNCc1ccc(-c2ccc3c(c2)C2=Nc4cc(Cl)ccc4CN2C=N3)o1` [Compound V-36, N-((5-(11-chloro-8H-quinazolino[4,3-b]quinazoline-2-yl)furan-2-yl)methyl)-2-(methylsulfonyl)ethylamine], the “The inhibition ratio of the compound on Aurora B(%)” value on aurora kinase B (40 μM) is 52.6%; on aurora kinase B (200 μM), 97.9%. Besides, the entries for the “The inhibition ratio of the compound on EGFR(%)” value at EGFR tyrosine kinase (40 μM) and on EGFR tyrosine kinase (200 μM) were 55.6% and 87.9%, respectively.
As for `COc1cc2c(cc1OCCCN1CCNCC1)C1=Nc3cccc(F)c3CN1C=N2` [Compound V-25, 9-fluoro-3-methoxy-2-(3-(piperazinyl-1-yl)propoxy)-8H-quinazolino[4,3-b]quinazoline], the inhibition at 10 µM in experiment [1] stood at 31.1%; in experiment [2], 19%; in experiment [3], 21.3%; in experiment [4] it was 47%; in [5], 53.4%; in [6], 20.4%. The figures for the inhibition at 10 µM in [7], in experiment [8] and in experiment [9] were 44.2%, 33.5% and 44.1%, respectively. The inhibition at 100 µM in [1] stood at 81.3%; in experiment [2], 21.9%; in experiment [3] it was 64.7%; in experiment [4], 79.3%; in experiment [5], 64.4%; in experiment [6], 77%. The inhibition at 100 µM in [7] was determined as 88.6%; in experiment [8], 79.2%; in experiment [9], 82.8%.
With `COCCOc1cc2c(cc1OCCOC)C1=Nc3cc(CO)cc(N)c3CN1C=N2` [Compound V-21, 9-amino-11-hydroxymethyl-2,3-bis(2-methoxyethoxy)-8H-quinazolino[4,3-b]quinazoline], the inhibition at 10 µM is 43.5% in experiment [1]; 10.3% in [2]; 21.8% in experiment [3]; 45.3% in experiment [4]; 27.6% in experiment [5]; 67% in experiment [6]. In addition, the inhibition at 10 µM in experiment [7] was 52.7%; in [8], 31.8%; in experiment [9], 26.9%. Further, the inhibition at 100 µM in [1] came to 90.3%; in experiment [2] it was 52.7%; in [3], 86.3%; in experiment [4] it was 78%; in experiment [5], 62.6%; in [6], 74.9%. For the same compound, the inhibition at 100 µM is 89.4% in [7], 87% in experiment [8] and 81.6% in experiment [9].
Regarding `CS(=O)(=O)CCNCc1ccc(-c2ccc3c(c2)C2=Nc4ccc(F)c(Cl)c4CN2C=N3)o1` [Compound V-34, N-((5-(9-chloro-10-fluoro-8H-quinazolino[4,3-b]quinazoline-2-yl)furan-2-yl)methyl)-2-(methylsulfonyl)ethylamine], the “The inhibition ratio of the compound on Aurora B(%)” value at aurora kinase B (40 μM) was 17.8%; at aurora kinase B (200 μM), 92.6%. Moreover, the “The inhibition ratio of the compound on EGFR(%)” value at EGFR tyrosine kinase (40 μM) was found to be 21.6%; on EGFR tyrosine kinase (200 μM), 72.6%.
In the case of `COc1cc2c(cc1OC)C1=Nc3ccc(F)c(Cl)c3CN1C=N2` [Compound V-30, 9-chloro-10-fluoro-2,3-dimethoxy-8H-quinazolino[4,3-b]quinazoline], the entries for the “The inhibition ratio of the compound on Aurora B(%)” value at aurora kinase B (40 μM) and at aurora kinase B (200 μM) were 46.3% and 79.6%, respectively. The “The inhibition ratio of the compound on EGFR(%)” value came out at 27.8% at EGFR tyrosine kinase (40 μM) and 82.1% on EGFR tyrosine kinase (200 μM).
